Data taken from patent US20260315446A1, “ANTIFUNGAL COMPOUNDS AND USES THEREOF” (priority 2023, published 2026).

Experiments:
[1] = In vivo tolerability of JH-FK-08; set-up: species or system mouse (A/J); conditions: 40 mg/kg once daily, 14 days
Method: FIG. 14: In vivo tolerability of JH-FK-08. Maximum tolerated dose study of female A/J mice (n=3). Animals received once daily (A) and twice daily (B) dosing, and weight over time was plotted as percent change from initial body weight.
Based on the in vitro fungal and mammalian calcineurin inhibition data, the panel of FK520 analogs was assessed and ranked. Therapeutic index (TI) scores were used to quantify the effects of structural modification on the compounds (Table 8). Therapeutic index scores were calculated for each analog as the ratio of relative change in immunosuppressive and antifungal activities compared to FK506 as previously utilized (see, I-Toy M J, et at. 2022. mBio 13:e0104922). This ratio of therapeutic benefit and host toxicity, or fungal and mammalian calcineurin inhibition, allowed us to quantify and rank these analogs. […] This is the greatest TI found within the library and allowed us to identify JH-FK-08 as a lead candidate for an in vivo study. Tolerability of JH-FK-08 was assessed by monitoring animal responses to drug dosing across 14 days, including changes in weight, fur condition, and behavior. A maximum dose of 40 mg/kg was tested in once a day dosing, and due to solubility limitations, the tolerability of JH-FK-08 at 60 and 80 mg/kg total daily doses was assessed by dosing two equal doses per day (FIG. 14). […]

[2] = system: Cryptococcus deneoformans; test: MIC assay (Example 3); assay type: cell-based; conditions: 72 hours with 5 times starting amount of cells
Method: For the lead compound JH-FK-08, the mechanism of action resulting in antifungal activity was tested for conservation of calcineurin inhibition. To probe the JH-FK-08 mechanism of action, MICs of JH-FK-08 were determined with fungal mutants that lack the drug-binding protein FKBP12 or have mutations in the binding site on calcineurin that prevent FKBP12-FK506 binding and inhibition. […] Taken together, these findings support the hypothesis that JH-FK-08 requires FKBP12 for antifungal activity, and the target of the FKBP12-JH-FK-08 complex is calcineurin. The length of time that drugs are active in vivo is critical information relevant to drug development, and the time frame of drug activity can have a drastic impact on treatment regimen and efficacy. Therefore, the pharmacokinetic profiles of FK506 and JH-FK-08 were investigated. Three male and three female CD1 mice were administered a single dose of JH-FK-08 or FK506 at 40 mg/kg. Whole blood samples were taken over a 24-hour period, and the drug concentration remaining in the blood was determined. Pharmacokinetic parameters were calculated using a non-compartmental approach (see, Gabrielsson J, Weiner D. 2012. Methods Mot Biol Clifton NJ 929:377-389). […] When assessing specific pharmacokinetic measures, sex differences began to emerge.
In vitro antifungal activity was assessed for all fungal strains in RPMI 1640 (Sigma-Aldrich R1383). MICs were measured using Clinical and Laboratory Standards Institute (CLSI) M38-A2 and M27-A3 standard in vitro antifungal susceptibility protocols. C. neoformans and A. fumigatus testing was performed at 37° C. MECs for A. fumigatus were recorded after 48 h of growth. C. albicans testing was performed at 30° C. with a uniform concentration of 2 μg/mL of fluconazole to sensitize the cells to calcineurin inhibition.
C. neoformans clinical isolate H99 and congenic-derived strain KN99α were used (see, Nielsen K, et al., 2003. Infect Immun 71:4831-4841). […]

CC[C@@H]1/C=C(\C)C[C@H](C)C[C@H](OC)[C@H]2O[C@@](O)(C(=O)C(=O)N3CCCC[C@H]3C(=O)O[C@H](/C(C)=C/C3CC[C@@H](O)[C@H](OC)C3)[C@H](C)[C@@H](O)C/C1=N/NC(=O)OC)[C@H](C)C[C@@H]2OC (some centres unmarked) [JH-FK-08]
tolerability ([1]; 60 and 80 mg/kg total daily in two equal doses): Animals tolerated all dosages | weight difference from vehicle-treated animals ([1]; 60 and 80 mg/kg total daily): ≤ 10% | MIC/MEC ([2]; strain C21F2 (JEC21 CNB1-1)): >25 µg/mL | MIC/MEC ([2]; strain C21F3 (JEC21 frr1)): >25 µg/mL | MIC/MEC ([2]; strain JEC21): <0.4 µg/mL
